According to paper PMC11313072, “Copper(II) and Zinc(II) Complexes with Bacterial Prodigiosin Are Targeting Site III of Bovine Serum Albumin and Acting as DNA Minor Groove Binders” (International Journal of Molecular Sciences, 2024):
Blank lines part the entries; values can stand above or below the compound they belong to.

Target: T1, bovine serum albumin (BSA) (Bos taurus, UniProt P02769)
T1 construct: gene ALB; commercial native full-length BSA (Sigma-Aldrich), mature secreted protein
Test: tryptophan fluorescence quenching
Assay type: binding
Conditions: PBS pH 7.4, BSA 5 μM, excitation 280 nm, no site marker, double-log
From the text: tryptophan fluorescence quenching on bovine serum albumin (BSA)

T1 sequence (P02769 25-607): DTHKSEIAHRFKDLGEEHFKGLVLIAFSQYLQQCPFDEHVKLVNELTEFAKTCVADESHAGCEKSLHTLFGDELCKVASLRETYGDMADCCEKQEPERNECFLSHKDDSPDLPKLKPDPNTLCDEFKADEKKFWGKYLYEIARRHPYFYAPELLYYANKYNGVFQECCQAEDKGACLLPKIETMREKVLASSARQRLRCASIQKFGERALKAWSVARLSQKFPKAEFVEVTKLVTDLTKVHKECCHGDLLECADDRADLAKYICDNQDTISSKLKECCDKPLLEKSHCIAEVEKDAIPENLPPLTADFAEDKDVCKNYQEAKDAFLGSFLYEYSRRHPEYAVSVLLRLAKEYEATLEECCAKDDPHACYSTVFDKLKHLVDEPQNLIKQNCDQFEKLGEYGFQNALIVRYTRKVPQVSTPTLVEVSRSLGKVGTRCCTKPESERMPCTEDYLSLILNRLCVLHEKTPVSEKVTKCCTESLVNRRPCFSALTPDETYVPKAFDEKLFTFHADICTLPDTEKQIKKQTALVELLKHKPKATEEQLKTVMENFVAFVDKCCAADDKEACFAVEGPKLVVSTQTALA

Compound: CCCCCC1=C/C(=C/c2[nH]c(-c3ccc[nH]3)cc2OC)N=C1C [PG, prodigiosin]
- KA (n = 0.97): 5770 M⁻¹

- KA (n = 1.41): 805000 M⁻¹
Compound: CuPG

- KA (n = 1.07): 7140 M⁻¹
Compound: ZnPG
